Source: article PMC12395807, “Chemoreceptor family in plant-associated bacteria responds preferentially to the plant signal molecule glycerol 3-phosphate” (Genome Biology, 2025)

How the values were obtained:
[1] = biological target: LBD of chemoreceptor R3 (WP_006464688.1) (Herbaspirillum frisingense, UniProt A0ABU1PC34); experiment: ITC binding to R3-LBD; conditions: 20 °C, Nb = no binding
Experimental: (§1) Plasmids for the overexpression of the different proteins were transformed into E. coli BL21(DE3). The resulting strains were grown under continuous stirring (200 rpm) at 30 °C in 2-L Erlenmeyer flasks containing 500 mL of LB medium supplemented with 50 μg/mL kanamycin. At an OD660 of 0.5, protein expression was induced by the addition of 0.1 mM isopropyl β-D-1-thiogalactopyranoside. Growth was continued at 16 °C overnight prior to cell harvesting by centrifugation at 10,000 × g for 20 min. Cell pellets were resuspended in buffer A (Additional file 2: Table S4) and subsequently broken by French press treatment at 62.5 lb/in^2. After centrifugation at 20,000 × g for 30 min, the supernatants were loaded onto 5-mL HisTrap HP columns (Amersham Biosciences) equilibrated with buffer A, and the proteins were eluted with a linear gradient of buffer B (Additional file 2: Table S4). All proteins contain a hexa-histidine tag at the N-terminal extension (Additional file 2: Table S3) and were purified at 4 °C. The purified proteins were dialyzed overnight into the corresponding analysis buffers (Additional file 2: Table S4) for immediate analysis.
(§2) All experiments were conducted on a VP microcalorimeter (Microcal, MA) at 15 °C for PacP-LBD and at 20 °C for the remaining proteins. Proteins were dialyzed into the analysis buffers specified in Additional file 2: Table S4, placed into the sample cell and titrated with aliquots of ligand solutions (1 to 10 mM) freshly prepared in dialysis buffer. The mean enthalpies measured from the injection of the ligands into the analysis buffer were subtracted from the raw titration data prior to data analysis with the MicroCal version of ORIGIN. The data were fitted with the “One binding site model” of ORIGIN.

[2] = biological target: LBD of chemoreceptor R6 (WP_174062248.1); experiment: ITC binding to R6-LBD; parameters: species or system Agrobacterium larrymoorei; conditions: 20 °C, Nb = no binding
Experimental: as §1, §2

[3] = biological target: LBD of chemoreceptor R9 (WP_189529961.1) (Paludibacterium paludis, UniProt A0A918NWY2); experiment: ITC binding to R9-LBD; conditions: 20 °C, Nb = no binding
Experimental: as §1, §2

[4] = tested on: ECA_RS12390-LBD (PacP-LBD); experiment: Thermal shift ligand screening of PacP-LBD; format: binding, Pectobacterium atrosepticum; conditions: thermal shift assay, Biolog arrays PM1, PM2A, PM3B, PM4A
Experimental: Assays were carried out on a MyIQ2 Real-Time PCR instrument (Bio-Rad, Hercules, CA, USA). Ligand solutions were prepared by dissolving the array compounds in 50 µL of Milli-Q water, which, according to the manufacturer, corresponds to a concentration of 10–20 mM. Freshly purified proteins were dialyzed into analysis buffer (Additional file 2: Table S4). Compound arrays PM1, PM2A (carbon sources), PM3B (nitrogen sources), and PM4A (phosphorus and sulfur sources) from Biolog (https://www.biolog.com/) were used. The compositions of these arrays are provided in Additional file 2: Table S1. The experiments were conducted in 96-well plates, and each assay mixture contained 20 µL of the dialyzed protein (at 80–50 µM), 2 µL of 5 × SYPRO orange (Life Technologies, Eugene, Oregon, USA), and 2.5 µL of the resuspended array compound or the equivalent amount of buffer in the ligand-free control. The samples were heated from 23 to 85 °C at a scan rate of 1 °C/min. The protein unfolding curves were monitored by detecting changes in SYPRO® Orange fluorescence. The Tm values were determined from the first derivative values of the raw fluorescence data.

[5] = tested on: P. atrosepticum SCRI1043 pacP mutant (MpacP); experiment: Quantitative capillary chemotaxis assay, pacP mutant; format: cell-based, Pectobacterium atrosepticum; conditions: 1 mM ligand
From the text: A mutant defective in ECA_RS12390 was constructed by homologous recombination using a derivative plasmid of the suicide vector pKNG101. Briefly, a 0.5-kb fragment corresponding to the region encoding the LBD of ECA_RS12390 was amplified by the primers specified in Additional file 2: Table S2 and cloned into pGEM®-T. The resulting plasmid pGEM::ECA_RS12390 was digested with XmaI, and the 0.5-kb insert was cloned into the same site at pKNG101 to generate pKNG101::ECA_RS12390. This plasmid was subsequently transformed into P. atrosepticum SRCI1043 via biparental conjugation using E. coli β2163. All the plasmids were verified by PCR and sequencing. The pETb(+) derivatives encoding the LBD of the different receptors analyzed in this study (Table 1) were purchased from GeneScript. Plasmid pBBR-ECA_RS12390 was constructed by amplifying the pacP gene using the primers detailed in Additional file 2: Table S2 and cloning of the PCR product into the NdeI/BamHI sites of pBBR1MCS2_START. The sequences of the proteins analyzed in this study are provided in Additional file 2: Table S3. The ECA_RS12390 nucleotide sequence is available in the published genome of P. atrosepticum SCRI1043 [60].
Overnight cultures of P. atrosepticum SCRI1043 were grown at 30 °C in minimal medium. At an OD660 of 0.4–0.45, the cultures were washed twice with chemotaxis buffer (50 mM K2HPO4/KH2PO4, 20 μM EDTA, 0.05% (v/v) glycerol, pH 7.0) and diluted to an OD660 of 0.1 in the same buffer. Subsequently, 230 μL of the resulting bacterial suspension was placed into the wells of 96-well plates. One-microliter capillary tubes (P1424, Microcaps; Drummond Scientific) were heat-sealed at one end and filled with either chemotaxis buffer (negative control) or chemotaxis buffer containing PacP ligands at a concentration of 1 mM. The capillaries were immersed in the bacterial suspensions at their open ends. After 30 min at room temperature, the capillaries were removed from the bacterial suspensions, rinsed with sterile water, and the contents were expelled into 1 mL of 40 mM K2HPO4, 15 mM KH2PO4. Serial dilutions were plated onto minimal medium supplemented with 15 mM glucose as the carbon source. The number of colony-forming units was determined after 36 h of incubation at 30 °C. In all the cases, the data were corrected with the number of cells that swam into the buffer-containing capillaries.

[6] = tested on: Bdellovibrio bacteriovorus; parameters: method as in PMID 119030, PMID 500565; conditions: cited from earlier work

Chain of LBD of chemoreceptor R3 (WP_006464688.1) (A0ABU1PC34 entry or part of it): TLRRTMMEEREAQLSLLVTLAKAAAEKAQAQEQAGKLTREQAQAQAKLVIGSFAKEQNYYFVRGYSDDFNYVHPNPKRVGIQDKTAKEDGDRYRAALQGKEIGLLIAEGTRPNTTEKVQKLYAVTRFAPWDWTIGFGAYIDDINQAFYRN
Chain of LBD of chemoreceptor R9 (WP_189529961.1) (A0A918NWY2 entry or part of it): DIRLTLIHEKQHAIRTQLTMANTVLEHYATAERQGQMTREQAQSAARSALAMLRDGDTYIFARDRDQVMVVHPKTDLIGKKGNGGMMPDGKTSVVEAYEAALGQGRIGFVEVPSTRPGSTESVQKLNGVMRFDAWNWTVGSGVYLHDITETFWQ

| SMILES | KD [1] | KD [2] | KD [3] | Tm change with respect to the ligand-free protein [4] | chemotaxis (capillary assay) [5] | chemotaxis [6] | Kd [1] |
| --- | --- | --- | --- | --- | --- | --- | --- |
| O=C(O)[C@@H](O)COP(=O)(O)O [3-phosphoglycerate] | Nb | Nb | Nb | significant increases in Tm | Only glycerol 2-phosphate served as an attractant for the mutant | weak chemotaxis |  |
| O=P(O)(O)OCC(O)CO (stereo not shown) [glycerol 3-phosphate] | bound | Nb | Nb | significant increases in Tm | Only glycerol 2-phosphate served as an attractant for the mutant | weak chemotaxis | 33 ± 1 µM |
